The record followed here is ChEMBL document CHEMBL1201862, “PubChem BioAssay data set” (2004).

Some test systems named below: HOP-92; OVCAR-8; M14; SW-620; SK-MEL-28; Hs-578T; NCI-H522; UACC-257; SNB-19; OVCAR-3; HT-29; U-251; MOLT-4; K562; Malme-3M; SF-539; SN12C; HCC 2998; RXF 393; COLO 205.
Holding throughout (assay): inhibition of tumour cell growth, NCI panel, 48 h

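Results reflect a 48-hour exposure of cells in 96-well plates to compound at five concentrations. The concentration for 50% growth inhibition is given as GI50.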 Activity calls are given as the source filed them. No stated cut-off is given here; in the data, active = GI50 up to about 1.1 µM and inactive = higher.

On to `CC1=C(C#N)S(=O)(=O)c2c(oc(C)c2C)N1`, for which the GI50 in the experiment on HOP-92, in the experiment with OVCAR-8, in the experiment on M14, in the experiment with SW-620, in the experiment on SK-MEL-28 and with Hs-578T was > 100 µM (inactive) in each case. The GI50 with NCI-H522, with UACC-257, in the experiment on SNB-19, in the experiment on OVCAR-3, in the experiment on HT-29 and with U-251 was > 100 µM (inactive) each time. The GI50 in the experiment on MOLT-4, in the experiment on K562, in the experiment on Malme-3M, in the experiment with SF-539, with SN12C and in the experiment with HCC 2998 was > 100 µM (inactive) throughout.

As for `C=Cc1cc(OC)c2c(c1)c(=O)oc1c2cc(OC)c2c(O)ccc(C3OC(C)C(O)C(C)(O)C3O)c21` (configuration not stated), the GI50 is 0.041 µM (active) in the experiment on HOP-92; 0.025 µM (active) in the experiment on OVCAR-8; 0.000382 µM (active) in the experiment with M14; 0.0225 µM (active) with SW-620; 0.0225 µM (active) in the experiment on RXF 393; 0.00295 µM (active) with Hs-578T. Besides, the GI50 in the experiment with SNB-19 is 0.0372 µM (active); with OVCAR-3 it was 0.0548 µM (active); with HT-29 it was 0.0341 µM (active); in the experiment with U-251 it was 0.0296 µM (active); with MOLT-4, 0.0225 µM (active); with K562, 0.0306 µM (active). Further, the GI50 is 0.0764 µM (active) in the experiment on Malme-3M, 0.0295 µM (active) in the experiment on SF-539, 0.0303 µM (active) in the experiment with SN12C and 0.0493 µM (active) in the experiment on HCC 2998.

For the compound `CCN(CC)C(=O)COc1cc2c(O)c3c(O)c(C)c4c(c13)C(=O)C(C)(OC=CC(OC)C(C)C(OC(C)=O)C(C)C(O)C(C)C(O)C(C)C=CC=C(C)C(=O)N2)O4` (configuration not stated), the GI50 in the experiment with HOP-92, with OVCAR-8, with M14, with SW-620, in the experiment with RXF 393 and in the experiment on SK-MEL-28 was > 100 µM (inactive) throughout. Besides, the GI50 in the experiment on Hs-578T, with UACC-257, in the experiment on SNB-19, in the experiment on OVCAR-3, in the experiment on HT-29 and with U-251 was > 100 µM (inactive) throughout. Also, the GI50 in the experiment with MOLT-4, in the experiment on K562, in the experiment on Malme-3M, with SN12C and in the experiment on HCC 2998 was > 100 µM (inactive) throughout.

In the case of `CCN1C[C@]2(C)CC[C@H](OCc3ccccc3)C34C5C[C@@H]6CC[C@](O)(C(C[C@@H]32)C14)C5[C@H]6OCc1ccccc1` (some centres not stated), the GI50 in the experiment on HOP-92 was > 100 µM (inactive); in the experiment on OVCAR-8, 93.8 µM (inactive); in the experiment with M14 it was 46.9 µM (inactive); with SW-620 it was > 100 µM (inactive); with RXF 393, 53.1 µM (inactive); in the experiment with SK-MEL-28 it was > 100 µM (inactive). Also, the GI50 in the experiment on Hs-578T was > 100 µM (inactive); in the experiment with UACC-257, 29.9 µM (inactive); in the experiment on SNB-19, > 100 µM (inactive); with OVCAR-3, 35.6 µM (inactive); in the experiment on HT-29 it was 55.2 µM (inactive); with U-251, 64.9 µM (inactive). The GI50 in the experiment with COLO 205 is 42 µM (inactive); in the experiment on MOLT-4, 16.7 µM (inactive); in the experiment on K562, 55.6 µM (inactive); in the experiment with Malme-3M it was > 100 µM (inactive); with SF-539 it was > 100 µM (inactive); in the experiment with SN12C, > 100 µM (inactive). For the same compound, in the experiment with HCC 2998, the GI50 was 20 µM (inactive).

`O=C(Cn1c(C(=O)/C=C/c2cccs2)nc2ccccc21)c1ccc(Cl)cc1`: the GI50 is 23.3 µM (inactive) with HOP-92; 18.6 µM (inactive) in the experiment on M14; 25.6 µM (inactive) in the experiment on SW-620; 29.2 µM (inactive) in the experiment on RXF 393; 30.5 µM (inactive) in the experiment on SK-MEL-28; 12.8 µM (inactive) in the experiment on Hs-578T. Further, the GI50 is 17.9 µM (inactive) in the experiment with UACC-257; 25.5 µM (inactive) with SNB-19; 15.5 µM (inactive) with OVCAR-3; 19.7 µM (inactive) in the experiment on HT-29; 14.4 µM (inactive) in the experiment on U-251; 17.5 µM (inactive) in the experiment with COLO 205. The GI50 is 7.8 µM (inactive) in the experiment on K562; 13.6 µM (inactive) in the experiment with Malme-3M; 32.2 µM (inactive) in the experiment with SF-539; 16.7 µM (inactive) in the experiment on SN12C; 14.8 µM (inactive) in the experiment with HCC 2998.

As for `C=C1CN(C2=NCCO2)C1`, the GI50 in the experiment on HOP-92, in the experiment with OVCAR-8, in the experiment with M14, with SW-620, with RXF 393 and with SK-MEL-28 was > 100 µM (inactive) throughout. The GI50 in the experiment on Hs-578T, with UACC-257, in the experiment with SNB-19, in the experiment on OVCAR-3, in the experiment on HT-29 and in the experiment with COLO 205 was > 100 µM (inactive) throughout. Further, the GI50 in the experiment with MOLT-4, with K562, in the experiment on Malme-3M, with SF-539, in the experiment on SN12C and in the experiment on HCC 2998 was > 100 µM (inactive) throughout.

In the case of `COc1ccc2c(c1OC)C(=O)O[C@@H]2[C@H]1c2cc3c(cc2CCN1C)OCO3`, the GI50 with HOP-92, in the experiment with OVCAR-8, with M14, with SW-620, in the experiment on Hs-578T and in the experiment on NCI-H522 was > 100 µM (inactive) in each case. Moreover, the GI50 with UACC-257, in the experiment with SNB-19, in the experiment with OVCAR-3, in the experiment with HT-29, in the experiment with U-251 and with COLO 205 was > 100 µM (inactive) each time. The GI50 in the experiment with MOLT-4, with K562, with SF-539, in the experiment with SN12C and with HCC 2998 was > 100 µM (inactive) in each case.

As for `Cn1ccc(C(=O)N2CCSC2=S)c(OCc2ccccc2)c1=O`, the GI50 in the experiment on HOP-92 is 79.1 µM (inactive); in the experiment on OVCAR-8 it was > 100 µM (inactive); with SW-620, > 100 µM (inactive); with SK-MEL-28, > 100 µM (inactive); with Hs-578T, > 100 µM (inactive); in the experiment on NCI-H522, 39.2 µM (inactive). The GI50 with UACC-257, with SNB-19, in the experiment with HT-29, in the experiment on U-251, in the experiment on COLO 205 and with K562 was > 100 µM (inactive) in each case. Also, the GI50 with Malme-3M is 87.7 µM (inactive); in the experiment on SN12C it was > 100 µM (inactive); in the experiment with HCC 2998, > 100 µM (inactive).

In the case of `O=C(C=P(c1ccccc1)(c1ccccc1)c1ccccc1)c1ccc(-c2cccc([N+](=O)[O-])c2)cc1`, the GI50 in the experiment with HOP-92 was 2.16 µM (inactive); with M14 it was 2.05 µM (inactive); in the experiment with SW-620, 3.91 µM (inactive); with RXF 393, 3.06 µM (inactive); with SK-MEL-28 it was 4.98 µM (inactive); in the experiment with Hs-578T, 4.9 µM (inactive). In addition, the GI50 in the experiment with UACC-257 was 3.27 µM (inactive); with SNB-19 it was 5.07 µM (inactive); in the experiment with OVCAR-3, 2.98 µM (inactive); in the experiment on HT-29, 1.75 µM (inactive); in the experiment with U-251 it was 3.84 µM (inactive); in the experiment with COLO 205, 1.75 µM (inactive). Moreover, the GI50 with MOLT-4 was 2.96 µM (inactive); with K562 it was 3.35 µM (inactive); in the experiment with Malme-3M it was 3.48 µM (inactive); in the experiment on SF-539, 4.46 µM (inactive); in the experiment with SN12C, 3.13 µM (inactive); in the experiment on HCC 2998 it was 1.66 µM (inactive).

As to `CNC(=O)c1ccccc1-[s+]1c2ccccc2c(=O)n1C` (configuration not stated), the GI50 in the experiment with HOP-92, in the experiment on OVCAR-8, with M14, in the experiment on SW-620, with RXF 393 and in the experiment with SK-MEL-28 was > 100 µM (inactive) throughout. Further, the GI50 in the experiment with Hs-578T, with NCI-H522, with UACC-257, in the experiment with SNB-19, with OVCAR-3 and in the experiment on HT-29 was > 100 µM (inactive) in each case. The GI50 with U-251, with COLO 205, in the experiment with MOLT-4, in the experiment on K562, in the experiment on Malme-3M and in the experiment with SF-539 was > 100 µM (inactive) each time. The GI50 in the experiment on SN12C was > 100 µM (inactive).

Take `O=C(NCCC(F)(F)C(F)(F)C(F)(F)C(F)(F)F)NC1OC(CO)C(O)C(O)C1O` (configuration not stated): the GI50 in the experiment with HOP-92, with M14, with SW-620, in the experiment on RXF 393, in the experiment with SK-MEL-28 and with Hs-578T was > 100 µM (inactive) each time. Further, the GI50 with UACC-257, in the experiment on SNB-19, with OVCAR-3, with HT-29, in the experiment on U-251 and with COLO 205 was > 100 µM (inactive) each time. The GI50 in the experiment on MOLT-4, in the experiment on K562, in the experiment on Malme-3M, in the experiment on SF-539, in the experiment on SN12C and in the experiment with HCC 2998 was > 100 µM (inactive) each time.
